According to US20250302846A1, “ANTIBIOTIC COMPOSITION AND METHODS OF USE THEREOF” (THE REGENTS OF THE UNIVERSITY OF COLORADO A BODY CORPORATE, priority 2022, published 2025):
In brackets after ≈: the same amount, converted by molar mass. Several values for one entry are separate records, joined by “and”; a condition that tells them apart may be missing. Equal values may be shown once.

Key:
[1] = test system: S. aureus FDA209; assay: Growth inhibition in broth (MIC95); assay type: cell-based; conditions: Staphylococcus aureus
Description: FIG. 8A-B. […] inhibits the growth of Gram-positive bacteria in broth. A) Dose response curves monitoring staphylococcal and B. subtills growth in the presence of […] from an OD600 of 0.01, normalized to growth in 2% DMSO after 18 hours. Mean and SEM of at least three biological replicates performed with technical triplicates. B) Table of […] concentrations that inhibit growth. For comparison, S. Typhimurium is included.

[2] = test system: RAW 264.7 cells; assay: LDH release assay; assay type: cell-based
Description: FIG. 5A-C. […] Mice were euthanized 48 hours after infection. […] Significance was determined by Mann-Whitney.
LDH assays: An LDH-cytotoxicity assay kit (Abcam ab65393) was used according to the manufacturer's instructions. RAW 264.7 cells were seeded and remained uninfected or with infected as described for the CFU assay with SL1344.

[3] = test system: 5-day-old staphylococcal biofilms; assay: 5-day-old staphylococcal biofilms; assay type: cell-based; conditions: biofilms established 5 days in TSB, treated 18 hours, crystal violet
Description: (A-D). For the indicated strain, biofilms established in TSB for 5-days were treated for 18 hours with DMSO, rifampin (1x MIC95=0.05 μg/mL), vancomycin (1x MIC95=1 μg/mL), or D66 (Table 1). The remaining biofilm extracellular matrix was stained with crystal violet and the A595 was measured. Mean and SEM of three biological replicates performed with technical triplicates are shown. Asterisks indicate P≤0.05 as determined by one-way ANOVA compared to DMSO.

[4] = test system: S. Typhimurium; assay: Bacterial membrane potential assay with DiSC3(5); assay type: cell-based; conditions: mid-log cells in LB with PMB [0.5 μg/mL]; corrected for quenching by D66; JD1 [70 μM]
Description: FIG. 3A-F. D66 rapidly perturbs the bacterial cytoplasmic membrane with minor disruption of barrier function. Mid-log phase S. Typhimurium cells grown in LB with 0.5 μg/mL PMB were used for all experiments. A) Cell membrane potential was monitored with the fluorescent dye DiSC3 (5). Cells were treated at time 0 with DMSO, JD1 [70 μM], or D66. Data were normalized to DMSO at time 0 and corrected for the quenching effect of D66 (FIG. 6A, B) B) Cell membrane permeability was monitored by PI fluorescence. Cells were treated at time 0 with DMSO, SDS [0.005%] or D66. Samples were processed at the time points shown. A one-way ANOVA with a Dunnet's multiple comparison test, * P<0.005. C-F) Growth curves and kill-curves of cells treated at time 0 with either DMSO or D66. Culture aliquots were monitored for OD600 (C, E) or plated for enumeration of CFU (D, F). Data are presented as fold change. Mean and SEM of three biological replicates with technical triplicates are shown in all panels.
Bacterial Membrane potential assays: Membrane potential was measured using the potentiometric fluorescent probe DiSC3 (5) (Invitrogen). Mid-log phase cells were diluted to an OD600 of 0.4. […] Plates were monitored (ex650/em680 nm) on a BioTek Synergy H1 plate reader. After baseline fluorescence was recorded, compound was added to the desired final concentration and measurements were recorded for an additional 30 minutes. […]

[5] = test system: S. aureus FDA209; assay: Membrane permeability by PI fluorescence; assay type: cell-based; conditions: mid-log S. aureus FDA209
Description: Mid-log phase S. aureus FDA209 cells were used for all experiments. A) Membrane fluidity was evaluated with a Laurdan generalized polarization (GP) assay. Cells were exposed at time 0 to DMSO, benzyl alcohol (BnOH, a membrane fluidizer [50 mM]), or D66 (1x MIC95=130 μM). Mean and SEM of three biological replicates performed with technical triplicates. B) Membrane permeability was monitored by PI fluorescence. Cells were exposed at time 0 to DMSO, SDS [0.3%], or D66. Samples were processed at the timepoints shown. Mean and SEM of three biological replicates performed with technical triplicates. C) Intracellular pH was monitored with the fluorescent probe BCECF-AM. Cells were exposed at time 0 to DMSO, the protonophore CCCP [100 μM], or D66. Mean and SEM of three biological replicates performed with technical triplicates. D) Intracellular ATP levels measured using the Promega BacTiter-Glo kit after 30 minutes of treatment with DMSO, chloramphenicol (Chlor), or D66. Mean and SEM of three biological replicates performed with technical triplicates. E) Respiration rates of cells incubated with resazurin and treated at time 0 as indicated. Mean and […]

[6] = Solubility limit in assay medium; assay type: physicochemical; conditions: bacterial growth broth (LB or MHB), 37 °C, plasma or biological fluid, kinetic from dmso stock, final DMSO at or below 2%
[7] = test system: staphylococcal strains; assay: MIC95 quoted for staphylococcal persister and biofilm experiments; assay type: cell-based; conditions: staphylococcal strains; read-out: MIC95
Description: A-D) Overnight cultures of the indicated strains were treated at time 0 with DMSO, ciprofloxacin [4 μg/mL], vancomycin [10 μg/mL], or the corresponding MIC95 concentration of D66 (1x MIC95=130 μM, 49 μg/mL). Cultures were plated for enumeration of CFU at time points indicated. Mean and SEM of three biological replicates. E) RAW 264.7 macrophage-like cells and HeLa cells were infected with S. aureus USA300, at MOIs of 0.5 and 2.5, respectively. Cells were treated two hours after infection with DMSO (gray circle on Y axis), or dilutions of D66 from 40 μM. After 8 hours of infection, cells were lysed and plated for enumeration of CFU. Mean and SEM of biological duplicates performed with technical triplicates each with six dilutions of D66. The IC50 value that was calculatable is indicated.
Biofilm formation was monitored after 18 hours in TSB with subinhibitory concentrations of DMSO, rifampin (1x MIC95=0.05 μg/mL), vancomycin (1x MIC95=1 μg/mL), or D66 (1x MIC95=130 μM). A-D) Crystal violet staining for accumulated biofilm mass measured at A595. Mean and […]

Compound: O=C(Nc1cc(Cl)cc(Cl)c1)N1CCCN(Cc2ccccc2)CC1 [D66]
- MIC [1]: 130 µM (≈ 49.2 µg/mL)
- LDH release ([2]; RAW 264.7 cells infected with S. Typhimurium SL1344, 16 hours): reduced the percentage of cells that released LDH in a dose-dependent manner
- LDH release ([2]; uninfected RAW 264.7 cells, 16 hours): little effect on LDH release
- reduction of 5-day-old biofilms [3]: minimally effective
- DiSC3(5) fluorescence (membrane voltage) [4]: rapidly increased the fluorescence of DiSC3 (5) in a dose-dependent manner
- cell membrane rupture (PI permeability) [5]: does not rupture the cell membrane
- solubility [6]: ~150 µM (≈ 56.7 µg/mL)
- MIC [7]: 130 µM and 49 µg/mL
